Patent US20170157110A1, “METHODS FOR INDUCING INSULIN PRODUCTION AND USES THEREOF” (UNIVERSITE DE GENEVE, priority 2014, published 2017)

How the values were obtained:
FoxO1 [1] = target: T1, FoxO1 (Mus musculus, UniProt Q9R1E0); parameters: endogenous in cells; host or cells: Somatostatin-Cre; R26-YFP; RIP-DTR mice (pancreatic islets, δ-cells), in vivo; details: oral administration, diabetic db/db mice; cited from earlier work
FoxO1 [2] = target: T1, FoxO1; assay: Transient FoxO1 inhibition in β-cell-ablated (and non-ablated control) adult Somatostatin-Cre; R26-YFP; RIP-DTR mice: δ-cell conversion into insulin+ cells
β-cells = assay type: in vivo, mice; details: 2 weeks following DT administration; ablation at 2 weeks of age
α-cells = assay: α-cell lineage tracing after β-cell ablation in Glucagon-rtTA; TetO-Cre; R26-YFP; RIP-DTR pups; assay type: in vivo, mice; details: DT at 2 weeks of age
[3] = administered immediately after DT ablation, analysed 1mpa, adult mice

T1 sequence (Q9R1E0 whole entry): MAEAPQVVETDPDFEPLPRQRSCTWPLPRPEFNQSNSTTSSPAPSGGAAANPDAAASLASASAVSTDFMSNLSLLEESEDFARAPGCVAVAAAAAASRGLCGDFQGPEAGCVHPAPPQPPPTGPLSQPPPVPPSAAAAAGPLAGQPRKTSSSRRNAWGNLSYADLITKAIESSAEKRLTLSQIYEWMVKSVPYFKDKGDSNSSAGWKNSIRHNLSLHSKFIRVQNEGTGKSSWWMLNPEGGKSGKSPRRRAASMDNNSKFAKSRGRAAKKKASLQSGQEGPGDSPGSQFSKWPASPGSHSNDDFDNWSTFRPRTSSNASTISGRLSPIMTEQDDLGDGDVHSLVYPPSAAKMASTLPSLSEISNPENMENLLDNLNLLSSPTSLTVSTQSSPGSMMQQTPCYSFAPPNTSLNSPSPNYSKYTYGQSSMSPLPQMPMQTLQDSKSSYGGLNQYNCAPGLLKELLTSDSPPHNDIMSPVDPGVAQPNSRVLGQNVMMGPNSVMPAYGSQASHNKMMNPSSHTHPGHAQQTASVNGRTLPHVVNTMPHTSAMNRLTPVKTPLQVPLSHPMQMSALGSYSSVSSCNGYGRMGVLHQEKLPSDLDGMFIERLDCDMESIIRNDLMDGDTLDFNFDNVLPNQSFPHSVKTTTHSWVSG

| Molecule | fasting plasma glucose level (FoxO1 [1]) | insulin+ cells more abundant (FoxO1 [2]; AS1842856 given for 1 week immediately after DT ablation, analysed 1 month post ablation (1mpa), adult mice, 30 mg/kg i.p. daily) [fold] | fraction of YFP+ cells that expressed insulin only (FoxO1 [2]; [3]) | insulin+ cells that were YFP+, i.e. dedifferentiated δ-cells (FoxO1 [2]; [3]) [%] | δ-cell de-differentiation upon transient FoxO1 inhibition (FoxO1 [2]; adult mice, AS1842856 for 1 week) | effect on insulin expression induction (FoxO1 [2]; non-ablated control mice) | β-cells lost (β-cells) [%] | YFP+/insulin+ (% cells; 1.5 mpa) (α-cells) [%] |
| --- | --- | --- | --- | --- | --- | --- | --- | --- |
| CCn1cc(C(=O)O)c(=O)c2c(N)c(F)c(NC3CCCCC3)cc21 [AS1842856, 5-amino-7-(cyclohexylamino)-1-ethyl-6-fluoro-4-oxo-1,4-dihydroquinoline-3-carboxylic acid] | drastic decrease | 11 | one-fourth | 93 | de-differentiate | minimal effect |  |  |
| Diphtheria toxin [DT] |  |  |  |  |  |  | 99 | 0.23 |
